Results taken from US8785445B2 (Array BioPharma Inc., priority 2008, dated 2014).

target: T1, human DP2 (Homo sapiens, UniProt Q9Y5Y4); test: DP-2 binding inhibition assay (3H-PGD2, membranes of DP2-expressing K562 cells); conditions: 0.1% BSA, read-out: EC50 (nM) 0.1% BSA
T1 construct: expressed in transfected cells; membranes prepared
T1 sequence (Q9Y5Y4 1-395): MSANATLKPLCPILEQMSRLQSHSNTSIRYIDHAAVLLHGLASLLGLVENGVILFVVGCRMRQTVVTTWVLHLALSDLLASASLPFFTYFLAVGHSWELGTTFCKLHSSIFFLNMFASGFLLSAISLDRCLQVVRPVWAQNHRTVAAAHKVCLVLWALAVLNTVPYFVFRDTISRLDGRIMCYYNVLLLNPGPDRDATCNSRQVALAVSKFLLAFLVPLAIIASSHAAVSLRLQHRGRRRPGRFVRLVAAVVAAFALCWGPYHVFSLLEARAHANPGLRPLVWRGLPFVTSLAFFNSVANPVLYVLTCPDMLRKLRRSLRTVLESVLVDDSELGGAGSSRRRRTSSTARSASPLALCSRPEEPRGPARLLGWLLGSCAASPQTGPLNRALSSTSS
Method in brief: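 Membranes from K562 clones stably expressing human DP2 were incubated 60 min at room temperature with 3H-PGD2 and compound, with 0.1% BSA, 1% HSA or 4% HSA, then filtered and counted.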

| EC50 | SMILES |
| --- | --- |
| 62.7 nM | Cc1cnc(NC(=O)c2ccc(Oc3cc4c(cc3C#N)C(C(=O)O)CCO4)cc2)s1 (stereo not drawn) [Example 176, 6-cyano-7-(4-(5-methylthiazol-2-ylcarbamoyl)phenoxy)chroman-4-carboxylic acid] |
| 1240 nM | Cc1noc(C)c1CCNC(=O)c1ccc(Oc2cc3c(cc2C#N)C(C(=O)O)CCO3)cc1 (stereo not drawn) [Example 198, 6-cyano-7-(4-(2-(3,5-dimethylisoxazol-4-yl)ethylcarbamoyl)phenoxy)chroman-4-carboxylic acid] |

same assay, conditions: 4% HSA, read-out: EC50 (nM) 4% HSA

| EC50 | SMILES |
| --- | --- |
| 849 nM | CC(C)c1nsc(NC(=O)c2ccc(Oc3cc4c(cc3Cl)C(C(=O)O)CCO4)cc2)n1 (stereo not drawn) [Example 160, 6-chloro-7-(4-(3-isopropyl-1,2,4-thiadiazol-5-ylcarbamoyl)phenoxy)chroman-4-carboxylic acid] |
| 998 nM | Cc1nc(NC(=O)c2ccc(Oc3cc4c(cc3Cl)C(C(=O)O)CCO4)cc2)cc(-c2ccc(Cl)cc2)n1 (stereo not drawn) [Example 101, Sodium 6-chloro-7-(4-(6-(4-chlorophenyl)-2-methylpyrimidin-4-ylcarbamoyl)phenoxy)chroman-4-carboxylate] |
| 728 nM | N#Cc1cc2c(cc1Oc1ccc(C(=O)Nc3nnc(-c4ccccc4)s3)cc1)OCCC2C(=O)O (stereo not drawn) [Example 146, 6-Cyano-7-(4-(5-phenyl-1,3,4-thiadiazol-2-ylcarbamoyl)phenoxy)chroman-4-carboxylic acid] |
| 258 nM | COc1ccc(-c2cccc(NC(=O)c3ccc(Oc4cc5c(cc4Cl)C(C(=O)O)CCO5)cc3)n2)c(OC)n1 (stereo not drawn) [Example 55, Sodium 6-chloro-7-(4-(2′,6′-dimethoxy-2,3′-bipyridin-6-ylcarbamoyl)phenoxy)chroman-4-carboxylate] |
| 276 nM | CC(C)(C)c1cccc(NC(=O)c2ccc(Oc3cc4c(cc3Cl)C(C(=O)O)CCO4)cc2)n1 (stereo not drawn) [Example 114, 7-(4-(6-tert-Butylpyridin-2-ylcarbamoyl)phenoxy)-6-chlorochroman-4-carboxylic acid] |
| 128 nM | O=C(Nc1nccc(-c2ccc(Cl)cc2)n1)c1ccc(Oc2cc3c(cc2Cl)C(C(=O)O)CCO3)cc1 (stereo not drawn) [Example 132, 6-Chloro-7-(4-(4-(4-chlorophenyl)pyrimidin-2-ylcarbamoyl)phenoxy)chroman-4-carboxylic acid] |
| 80.9 nM | O=C(Nc1ccnc(-c2ccc(Cl)cc2)n1)c1ccc(Oc2c(Cl)cc3c(c2Cl)OCCC3C(=O)O)cc1 (stereo not drawn) [Example 137, 6,8-Dichloro-7-(4-(2-(4-chlorophenyl)pyrimidin-4-ylcarbamoyl)phenoxy)chroman-4-carboxylic acid] |
| 71.3 nM | CSc1ccc(-c2cccc(NC(=O)c3ccc(Oc4cc5c(cc4Cl)C(C(=O)O)CCO5)cc3)n2)cc1 (stereo not drawn) [Example 83, 6-Chloro-7-(4-(6-(4-(methylthio)phenyl)pyridin-2-ylcarbamoyl)phenoxy)chroman-4-carboxylic acid] |
| 1510 nM | O=C(Nc1ccc(-c2ccc(F)cc2F)nn1)c1ccc(Oc2cc3c(cc2Cl)C(C(=O)O)CCO3)cc1 (stereo not drawn) [Example 71, Sodium 6-chloro-7-(4-(6-(2,4-difluorophenyl)pyridazin-3-ylcarbamoyl)phenoxy)chroman-4-carboxylate] |
| 16.6 nM | O=C(Nc1nc(-c2cccc(Cl)c2)cs1)c1ccc(Oc2cc3c(cc2Cl)C(C(=O)O)CCO3)cc1 (stereo not drawn) [Example 157, 6-chloro-7-(4-(4-(3-chlorophenyl)thiazol-2-ylcarbamoyl)phenoxy)chroman-4-carboxylic acid] |
| 1920 nM | O=C(NCCc1cccnc1N1CCCCC1)c1ccc(Oc2cc3c(cc2Cl)C(C(=O)O)CCO3)cc1 (stereo not drawn) [Example 226, 6-chloro-7-(4-(2-(2-(piperidin-1-yl)pyridin-3-yl)ethylcarbamoyl)phenoxy) chroman-4-carboxylic acid] |
| 45.8 nM | O=C(Nc1nc2ccc(C(F)(F)F)cc2s1)c1ccc(Oc2cc3c(cc2Cl)C(C(=O)O)CCO3)cc1 (stereo not drawn) [Example 183, 6-Chloro-7-(4-(6-(trifluoromethyl)benzo[d]thiazol-2-ylcarbamoyl)phenoxy)chroman-4-carboxylic acid] |
| 203 nM | O=C(Nc1ccc(-c2cccc(Cl)c2)nn1)c1ccc(Oc2cc3c(cc2Cl)C(C(=O)O)CCO3)cc1 (stereo not drawn) [Example 97, 6-Chloro-7-(4-(6-(3-chlorophenyl)pyridazin-3-ylcarbamoyl)phenoxy)chroman-4-carboxylic acid] |
| 627 nM | O=C(Nc1ccc(-c2ccccc2Cl)nc1)c1ccc(Oc2cc3c(cc2Cl)C(C(=O)O)CCO3)cc1 (stereo not drawn) [Example 125, 6-Chloro-7-(4-(6-(2-chlorophenyl)pyridin-3-ylcarbamoyl)phenoxy)chroman-4-carboxylic acid] |
| 774 nM | N#Cc1cc2c(cc1Oc1ccc(C(=O)Nc3cc4ccccc4cn3)cc1)OCCC2C(=O)O (stereo not drawn) [Example 9, 6-Cyano-7-(4-(isoquinolin-3-ylcarbamoyl)phenoxy)chroman-4-carboxylic acid] |
| 208 nM | O=C(Nc1cncc(-c2cccc(C(F)(F)F)c2)n1)c1ccc(Oc2cc3c(cc2Cl)C(C(=O)O)CCO3)cc1 (stereo not drawn) [Example 94, 6-chloro-7-(4-(6-(3-(trifluoromethyl)phenyl)pyrazin-2-ylcarbamoyl)phenoxy)chroman-4-carboxylic acid] |

| EC50 | SMILES |
| --- | --- |
| 255 nM | O=C(Nc1cnc2ccc(Cl)cc2n1)c1ccc(Oc2cc3c(cc2Cl)C(C(=O)O)CCO3)cc1 (stereo not drawn) [Example 20, 6-Chloro-7-(4-(7-chloroquinoxalin-2-ylcarbamoyl)phenoxy)chroman-4-carboxylic acid] |
| 87.3 nM | N#Cc1cc2c(cc1Oc1ccc(C(=O)Nc3cccc(-c4ccc(Cl)cc4Cl)n3)cc1)OCCC2C(=O)O (stereo not drawn) [Example 49, 6-Cyano-7-(4-(6-(2,4-dichlorophenyl)pyridin-2-ylcarbamoyl)phenoxy)chroman-4-carboxylic acid] |
| 299 nM | O=C(Nc1ccc2cc(Cl)ccc2n1)c1ccc(Oc2c(Cl)cc3c(c2Cl)OCCC3C(=O)O)cc1 (stereo not drawn) [Example 144, Sodium 6,8-dichloro-7-(4-(6-chloroquinolin-2-ylcarbamoyl)phenoxy)chroman-4-carboxylate] |
| 897 nM | CC(C)(C)Sc1cccc(NC(=O)c2ccc(Oc3cc4c(cc3Cl)C(C(=O)O)CCO4)cc2)n1 (stereo not drawn) [Example 91, 7-(4-(6-(tert-Butylthio)pyridin-2-ylcarbamoyl)phenoxy)-6-chlorochroman-4-carboxylic acid] |
| 207 nM | O=C(Nc1ccc(-c2ccc(Cl)cc2)nn1)c1ccc(Oc2cc3c(cc2Cl)C(C(=O)O)CCO3)cc1 (stereo not drawn) [Example 209, 6-chloro-7-(4-(6-(4-chlorophenyl)pyridazin-3-ylcarbamoyl)phenoxy) chroman-4-carboxylic acid] |
| 469 nM | O=C(Nc1cncc(-c2ccc(Cl)cc2)c1)c1ccc(Oc2cc3c(cc2Cl)C(C(=O)O)CCO3)cc1 (stereo not drawn) [Example 126, 6-Chloro-7-(4-(5-(4-chlorophenyl)pyridin-3-ylcarbamoyl)phenoxy)chroman-4-carboxylic acid] |
| 139 nM | O=C(Nc1nccc(-c2ccc(C(F)(F)F)cc2)n1)c1ccc(Oc2cc3c(cc2Cl)C(C(=O)O)CCO3)cc1 (stereo not drawn) [Example 130, 6-Chloro-7-(4-(4-(4-(trifluoromethyl)phenyl)pyrimidin-2-ylcarbamoyl)phenoxy)chroman-4-carboxylic acid] |
| 1910 nM | Cc1cc2ccccc2nc1NC(=O)c1ccc(Oc2cc3c(cc2Cl)C(C(=O)O)CCO3)cc1 (stereo not drawn) [Example 26, 6-Chloro-7-(4-(3-methylquinolin-2-ylcarbamoyl)phenoxy)chroman-4-carboxylic acid] |
| 46 nM | O=C(Nc1cccc(-c2cccc(C(F)(F)F)c2)n1)c1ccc(Oc2cc3c(cc2Cl)C(C(=O)O)CCO3)cc1 (stereo not drawn) [Example 112, 6-Chloro-7-(4-(6-(3-(trifluoromethyl)phenyl)pyridin-2-ylcarbamoyl)phenoxy)chroman-4-carboxylic acid] |
| 1600 nM | COc1ccc(-c2cccc(CCNC(=O)c3ccc(Oc4cc5c(cc4Cl)C(C(=O)O)CCO5)cc3)n2)cn1 (stereo not drawn) [Example 215, 6-chloro-7-(4-(2-(6′-methoxy-2,3′-bipyridin-6-yl)ethylcarbamoyl)phenoxy)chroman-4-carboxylic acid] |
| 178 nM | O=C(Nc1ccc2ccc(Cl)cc2n1)c1ccc(Oc2cc3c(cc2Cl)C(C(=O)O)CCO3)cc1 (stereo not drawn) [Example 17, 6-Chloro-7-(4-(7-chloroquinolin-2-ylcarbamoyl)phenoxy)chroman-4-carboxylic acid] |
| 1070 nM | CC(C)(C)c1csc(CCNC(=O)c2ccc(Oc3cc4c(cc3Cl)C(C(=O)O)CCO4)cc2)n1 (stereo not drawn) [Example 222, 7-(4-(2-(4-tert-butylthiazol-2-yl)ethylcarbamoyl)phenoxy)-6-chlorochroman-4-carboxylic acid] |
| 59 nM | O=C(Nc1nc(-c2ccc(F)c(F)c2)cs1)c1ccc(Oc2cc3c(cc2Cl)C(C(=O)O)CCO3)cc1 (stereo not drawn) [Example 154, 6-chloro-7-(4-(4-(3,4-difluorophenyl)thiazol-2-ylcarbamoyl)phenoxy)chroman-4-carboxylic acid] |
| 68.9 nM | O=C(Nc1nc(-c2ccc(F)cc2F)cs1)c1ccc(Oc2cc3c(cc2Cl)C(C(=O)O)CCO3)cc1 (stereo not drawn) [Example 155, 6-chloro-7-(4-(4-(2,4-difluorophenyl)thiazol-2-ylcarbamoyl)phenoxy)chroman-4-carboxylic acid] |
| 25.2 nM | O=C(Nc1cccc(-c2ccc(C(F)(F)F)cc2)n1)c1ccc(Oc2cc3c(cc2Cl)C(C(=O)O)CCO3)cc1 (stereo not drawn) [Example 110, 6-Chloro-7-(4-(6-(4-(trifluoromethyl)phenyl)pyridin-2-ylcarbamoyl)phenoxy)chroman-4-carboxylic acid] |
